In patent US20240277689A1, “METHOD OF TREATING AN AUTOIMMUNE HEMATOLOGICAL DISORDER” (Novartis AG, priority 2021, published 2024):

Key:
[1] = system: complement alternative pathway; conditions: multiple in vitro and in vivo non-clinical mechanistic studies; cited from earlier work
AP activity (Wieslab) = experiment: First in human (FIH) studies: suppression of AP activity (Wieslab); type: in vivo
Description: In the FIH studies, there was rapid suppression of the AP activity (Wieslab) with approximately 80% or greater inhibition achieved at two hours post-dose for participants receiving single dose of 200 mg iptacopan. The suppression of the AP (80% or greater inhibition) was sustained over 14 days of dosing at 200 mg b.i.d. The exposure-response model developed with data from the FIH study with iptacopan in healthy volunteers predicts that a dose of about 200 mg b.i.d. would be needed to achieve >90% inhibition of the AP (Wieslab assay) in most participants. Preclinical studies supported acceptable safety margins for human exposure following 200 mg b.i.d. dosing.
Given the observed PK/PD profile in a first in human study in healthy volunteers, a 200 mg b.i.d dose of iptacopan is selected for this study.

## CCO[C@H]1CCN(Cc2c(OC)cc(C)c3[nH]ccc23)[C@H](c2ccc(C(=O)O)cc2)C1 [iptacopan, 4-((2S,4S)-(4-ethoxy-1-((5-methoxy-7-methyl-1H-indol-4-yl)methyl)piperidin-2-yl))benzoic acid]
[1]
  inhibition of the complement alternative pathway: demonstrated inhibition of the complement alternative pathway
AP activity (Wieslab); over 14 days of dosing at 200 mg b.i.d.
  suppression of the AP (inhibition), sustained: ≥ 80%
AP activity (Wieslab); two hours post-dose, single dose of 200 mg, FIH participants
  inhibition of AP activity (Wieslab): ≥ 80%
